Assays:
human NAPE-PLD = human NAPE-PLD (Homo sapiens, UniProt Q6IQ20); test: NAPE-PLD PED6 surrogate substrate activity assay; type: biochemical; conditions: for inhibitory activity in words: PED6 assay, human NAPE-PLD; for fold drop in potency: compared to hit 2; for fold increase in potency/activity: compared to 2
[1] = not suited for in vivo use; cited from earlier work
[2] = test system: brains of freely moving mice; conditions: cited from earlier work
Neuro-2a cells = conditions: cited from earlier work
HEK293 cells = conditions: cited from earlier work

Sequence of human NAPE-PLD (Q6IQ20 whole entry): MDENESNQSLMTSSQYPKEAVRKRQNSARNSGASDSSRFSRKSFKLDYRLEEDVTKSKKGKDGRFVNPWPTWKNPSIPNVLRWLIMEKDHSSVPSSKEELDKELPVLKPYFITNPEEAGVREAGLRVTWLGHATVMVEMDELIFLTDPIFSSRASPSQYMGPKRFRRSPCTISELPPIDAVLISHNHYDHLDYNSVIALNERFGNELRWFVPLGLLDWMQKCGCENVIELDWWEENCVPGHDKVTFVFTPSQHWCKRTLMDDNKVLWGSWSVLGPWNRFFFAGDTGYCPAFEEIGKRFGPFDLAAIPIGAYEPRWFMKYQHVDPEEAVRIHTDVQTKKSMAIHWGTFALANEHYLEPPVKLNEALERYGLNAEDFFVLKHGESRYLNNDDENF

In the case of `O=C(NCC1CC1)c1cc(N2CCOCC2)nc(Cl)n1` [Compound 31, 2-Chloro-N-(cyclopropylmethyl)-6-morpholinopyrimidine-4-carboxamide], the “inhibitory activity in words” value (human NAPE-PLD) is reported as “inactive”.

In the case of `O=C(NCC1CC1)c1cc(N2CCOCC2)ncn1` [Compound 32, N-(Cyclopropylmethyl)-6-morpholinopyrimidine-4-carboxamide], the “inhibitory activity in words” value (human NAPE-PLD) is reported as “inactive”.

In the case of `Oc1c(Cl)cc(Cl)c(Cl)c1Cc1c(O)c(Cl)cc(Cl)c1Cl` [hexachlorophene], the neurotoxicity [1] is listed as “neurotoxic effects”.

In the case of `CN(CCc1ccccc1)c1nc(NC(=O)CC2CC2)cc(N2CCOCC2)n1` [Compound 30, 2-Cyclopropyl-N-(2-(methyl(phenethyl)amino)-6-morpholinopyrimidin-4-yl)acetamide], the “fold drop in potency” value (human NAPE-PLD) is reported as 10 fold.

For `CN(CC1CC1)C(=O)c1cc(N2CCOCC2)nc(N(C)CCc2ccccc2)n1` [Compound 7, N-(Cyclopropylmethyl)-N-methyl-2-(methyl(phenethyl)amino)-6-morpholinopyrimidine-4-carboxamide], the “inhibitory activity in words” value (human NAPE-PLD) was “complete loss of potency”.

For `O=C(NCC1CC1)c1cc(N2CC[C@H](O)C2)nc(N2CCC[C@@H](c3ccccc3)C2)n1` [Compound 1, N-(Cyclopropylmethyl)-6-((S)-3-hydroxypyrrolidin-1-yl)-2-((S)-3-phenylpiperidin-1-yl)pyrimidine-4-carboxamide], the “turnover of PED6” value (human NAPE-PLD; at a dose of 10 μM, full efficacy) is given as “completely blocked”, the “fold increase in potency/activity” value (human NAPE-PLD) is given as 10 fold and the “anandamide levels in mouse brain” value ([2]; 30 mg/kg, intraperitoneal injection) is given as “decreased”. The “NAE levels including anandamide” value ([2]; brains of freely moving mice) was “reduced” and the “NAE levels including anandamide” value (Neuro-2a cells) was “reduced”.

With `CN(C)c1cc(C(=O)NCC2CC2)nc(N(C)CCc2ccccc2)n1` [Compound 81, N-(Cyclopropylmethyl)-6-(dimethylamino)-2-(methyl(phenethyl)amino)pyrimidine-4-carboxamide] the “fold increase in potency/activity” value (human NAPE-PLD) was 2 fold.

With `O=C(NCC1CC1)c1cc(N2CCOCC2)nc(N2CCCC2Cc2ccccc2)n1` (racemic) [Compound 63, (±)-2-(2-Benzylpyrrolidin-1-yl)-N-(cyclopropylmethyl)-6-morpholinopyrimidine-4-carboxamide] the “fold increase in potency/activity” value (human NAPE-PLD) was 2 fold.

In the case of `CC(C)N(CCc1ccccc1)c1nc(C(=O)NCC2CC2)cc(N2CCOCC2)n1` [Compound 55, N-(Cyclopropylmethyl)-2-(isopropyl(phenethyl)amino)-6-morpholinopyrimidine-4-carboxamide], the “fold increase in potency/activity” value (human NAPE-PLD) is reported as 2 fold.

In the case of `CN(CCc1ccccc1)c1nc(C(=O)NCC2CC2)cc(N2CCCC(F)(F)C2)n1` [Compound 72, N-(Cyclopropylmethyl)-6-(3,3-difluoropiperidin-1-yl)-2-(methyl(phenethyl)amino)pyrimidine-4-carboxamide], the “fold increase in potency/activity” value (human NAPE-PLD) is reported as 2 fold.

In the case of `O=C(NCC1CC1)c1cc(N2CCOCC2)nc(N2CCCC(c3ccccc3)C2)n1` (racemic) [Compound 62, (±)-N-(Cyclopropylmethyl)-6-morpholino-2-(3-phenylpiperidin-1-yl)pyrimidine-4-carboxamide], the “fold increase in potency/activity” value (human NAPE-PLD) is reported as 2 fold.

With `CC(C)CNC(=O)c1cc(N2CCOCC2)nc(N(C)CCc2ccccc2)n1` [Compound 15, N-Isobutyl-2-(methyl(phenethyl)amino)-6-morpholinopyrimidine-4-carboxamide] the “fold drop in potency” value (human NAPE-PLD) was 10 fold.

For `CN(CCc1ccccc1)c1nc(C(=O)NCC2CC2)nc(N2CCOCC2)n1` [Compound 6, N-(Cyclopropylmethyl)-4-(methyl(phenethyl)amino)-6-morpholino-1,3,5-triazine-2-carboxamide], the “inhibitory activity in words” value (human NAPE-PLD) was “completely inactive”.

With `CN(CCc1ccccc1)c1nc(C(=O)NCC2CC2)cc(N2CCCC2)n1` [Compound 87, N-(Cyclopropylmethyl)-2-(methyl(phenethyl)amino)-6-(pyrrolidin-1-yl)pyrimidine-4-carboxamide] the “fold increase in potency/activity” value (human NAPE-PLD) was roughly 4 fold.

For `CN(CCc1ccccc1)c1cc(N2CCOCC2)cc(C(=O)NCC2CC2)n1` [Compound 3, N-(Cyclopropylmethyl)-6-(methyl(phenethyl)amino)-4-morpholino-picolinamide], the “fold drop in potency” value (human NAPE-PLD) was 10 fold.

In the case of `O=C(NCC1CC1)c1cc(N2CC[C@@H](O)C2)nc(N2CCC[C@H](c3ccccc3)C2)n1` [Compound 107, N-(Cyclopropylmethyl)-6-((R)-3-hydroxypyrrolidin-1-yl)-2-((R)-3-phenylpiperidin-1-yl)pyrimidine-4-carboxamide], the fold-reduced activity (human NAPE-PLD; (R,R) enantiomer compared to 1) is reported as 3 fold.

With `C[C@H](CCC(=O)O)[C@H]1CC[C@H]2[C@@H]3CC[C@@H]4C[C@H](O)CC[C@]4(C)[C@H]3CC[C@]12C` [lithocholic acid, reference compound] the “inhibitory activity in words” value (human NAPE-PLD) was “not active”.

For `O=c1[nH]c(=O)c2cc(S(=O)(=O)Nc3ccc(-c4ccncc4)cc3)ccc2[nH]1` [ARN19874], the IC50 (human NAPE-PLD) is given as 54 µM, the NAE levels (HEK293 cells) is given as “did not affect” and the NAPE levels (HEK293 cells) is given as “increase”.
